Reference: paper PMC11257449 (bioRxiv, 2024)

Target: AmpC β-lactamase (Escherichia coli, UniProt P00811)
Assay type: biochemical
Settings: for Km: AmpC substrate

Sequence of AmpC β-lactamase (P00811 20-377): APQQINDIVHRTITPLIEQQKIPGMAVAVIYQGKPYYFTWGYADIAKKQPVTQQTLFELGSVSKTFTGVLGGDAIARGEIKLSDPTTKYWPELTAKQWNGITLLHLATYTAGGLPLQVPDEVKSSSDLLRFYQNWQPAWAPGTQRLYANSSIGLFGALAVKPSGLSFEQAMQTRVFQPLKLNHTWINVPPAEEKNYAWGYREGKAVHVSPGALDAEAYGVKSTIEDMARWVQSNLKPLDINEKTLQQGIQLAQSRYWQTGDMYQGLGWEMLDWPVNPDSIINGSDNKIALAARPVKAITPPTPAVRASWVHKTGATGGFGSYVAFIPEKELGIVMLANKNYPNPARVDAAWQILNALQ

SMILES: O=C(Cc1cccs1)N[C@@H]1C(=O)N2C(C(=O)O)=C(CSc3ccc([N+](=O)[O-])c(C(=O)O)c3)CS[C@H]12 [CENTA]
- Km: 27.6 µM

SMILES: O=C(Cc1cccs1)N[C@@H]1C(=O)N2C(C(=O)O)=C(/C=C/c3ccc([N+](=O)[O-])cc3[N+](=O)[O-])CS[C@H]12 [nitrocefin]
- Km: 180 µM

SMILES: O=S(=O)(Nc1ccc(F)c2cnccc12)c1cc(Cl)cc(Cl)c1O [Z6615020275]
- Ki (Fig. 1 legend, crystallised inhibitors): 2000 nM
